Measurements reported in patent US9637516B2, “Betulinic acid proline derivatives as HIV inhibitors” (HETERO RESEARCH FOUNDATION, priority 2012, dated 2017).

What was measured:
[1] = Single dose oral pharmacokinetic study; assay type: in vivo, mice; details: mouse, plasma
Method: The test item was administered through oral route to animals (rat/mice) at 30 mg/kg dose in a suitable vehicle at 10 ml/kg dose volume. Blood samples (˜50 uL at each time point) were collected from retro-orbital plexus using K3 EDTA as anticoagulant in eppendorf tubes at defined time intervals under light ether anesthesia. The samples were centrifuged at 3500×g to separate plasma and stored at −80° C. until analysis.
Sample analysis: Test samples were analyzed using LC-MS-MS after developing fit-for-purpose method for each of test compound.

HIV-1 strain 92HT599 = assay: Antiviral activity: p24 estimation in MT2 cells infected with HIV-1 strain 92HT599; assay type: cell-based; details: for IC50: Human immunodeficiency virus 1, HIV-1 92HT599, p24; for inhibition at 0.1 µM: Human immunodeficiency virus 1, 100 nM; for inhibition at 0.1 µM / inhibition at 1 µM: HIV-1 92HT599, p24, ~96 hours; for inhibition at 1 µM: Human immunodeficiency virus 1, 1000 nM
Method: MT2 cells were infected with HIV-1 strain 92HT599 (10 TCID 50/30000 cells). The infected cells were plated at the concentration of ˜30 000 cells per well in 96 well plate. Test compound was added to the micro plate in defined format with the final concentration of DMSO (vehicle) is not more than 1%. Incubation was carried out in CO2 incubator for ˜96 hours for viral infection. At the end of incubation period an aliquot from each well was taken for p24 estimation. The quantitation of p24 is an index for antiviral activity of the compound. Percent inhibition was calculated with reference to control values (vehicle controls). p-24 estimation was carried out using Advance biosciences kit as per the procedure detailed by supplier.

[2] = Mice oral PK @30 mg/kg (Table 4)
[3] = Mice oral PK @30 mg/kg (Table 3)

**Q.** Which results are given for `C=C(C)[C@@H]1CC[C@]2(C(=O)N3CCC[C@H]3c3ncc(-c4ccc(F)cc4)[nH]3)CC[C@]3(C)[C@H](CC[C@@H]4[C@@]5(C)CC[C@H](OC(=O)CC(C)(C)C(=O)O)C(C)(C)[C@@H]5CC[C@]43C)[C@@H]12` [Compound 34, 4-(((1R,3aS,5aR,5bR,7aR,9S,11aR,11bR,13aR,13bR)-3a-((S)-2-(5-(4-fluorophenyl)-1H-imidazol-2-yl)pyrrolidine-1-carbonyl)-5a,5b,8,8,11a-pentamethyl-1-(prop-1-en-2-yl)icosahydro-1H-cyclopenta[a]chrysen-9-yl)oxy)-2,2-dimethyl-4-oxobutanoic acid]?
**A.** AUC(0-inf) [1, 2]: 263 µg·h/mL; AUC(0-t) [1, 2]: 224 µg·h/mL; Cmax [1, 2]: 13300 ng/mL; half-life [1, 2]: 16.1 h; IC50 (HIV-1 strain 92HT599): 17 nM

**Q.** For `CC1(C)C(C(=O)O)CC1C(=O)O[C@H]1CC[C@]2(C)[C@H]3CC[C@@H]4[C@H]5[C@H](C6(C)CC6)CC[C@]5(C(=O)N5CCC[C@H]5c5ncc(-c6ccccc6)[nH]5)CC[C@@]4(C)[C@]3(C)CC[C@H]2C1(C)C` (stereo partly drawn) [Compound 43, 2,2-dimethyl-3-((((1R,3aS,5aR,5bR,7aR,9S,11aR,11bR,13aR,13bR)-5a,5b,8,8,11a-pentamethyl-1-(1-methylcyclopropyl)-3a-((S)-2-(5-phenyl-1H-imidazol-2-yl)pyrrolidine-1-carbonyl)icosahydro-1H-cyclopenta[a]chrysen-9-yl)oxy)carbonyl)cyclobutane-1-carboxylic acid], which AUC(0-inf) [1, 2] is on record?
**A.** 776 µg·h/mL

**Q.** And the AUC(0-t) [1, 2]?
**A.** 294 µg·h/mL

**Q.** And the Cmax [1, 2]?
**A.** 13900 ng/mL

**Q.** What about the half-life [1, 2] of the same compound?
**A.** 55.6 h

**Q.** What about the IC50 (HIV-1 strain 92HT599) of the same compound?
**A.** 4.4 nM

**Q.** With `C=C(C)[C@@H]1CC[C@]2(C(=O)N3CCCC3c3ncc(-c4ccc(C#N)cc4)[nH]3)CC[C@]3(C)[C@H](CC[C@@H]4[C@@]5(C)CC[C@H](OC(=O)[C@H]6C[C@@H](C(=O)O)C6(C)C)C(C)(C)[C@@H]5CC[C@]43C)[C@@H]12` (some centres unmarked) [Compound 19] as the compound, how does the inhibition at 0.1 µM (HIV-1 strain 92HT599) read?
**A.** 86%

**Q.** What about the inhibition at 1 µM (HIV-1 strain 92HT599) of the same compound?
**A.** 100%

**Q.** Which results are given for `C=C(C)[C@@H]1CC[C@]2(C(=O)N3CCC[C@H]3c3ncc(-c4ccc([N+](=O)[O-])cc4)[nH]3)CC[C@]3(C)[C@H](CC[C@@H]4[C@@]5(C)CC[C@H](OC(=O)[C@H]6C[C@@H](C(=O)O)C6(C)C)C(C)(C)[C@@H]5CC[C@]43C)[C@@H]12` [Compound 17]?
**A.** inhibition at 0.1 µM (HIV-1 strain 92HT599): 96%; inhibition at 1 µM (HIV-1 strain 92HT599): 100%

**Q.** Which AUC(0-inf) [1, 2] does the source give for `CC1(C)C(C(=O)O)CC1C(=O)O[C@H]1CC[C@]2(C)[C@H]3CC[C@@H]4[C@H]5[C@H](C6(C)CC6)CC[C@]5(C(=O)N5CCC[C@H]5c5ncc(-c6ccc(F)cc6)[nH]5)CC[C@@]4(C)[C@]3(C)CC[C@H]2C1(C)C` (stereo partly drawn) [Compound 42, 3-((((1R,3aS,5aR,5bR,7aR,9S,11aR,11bR,13aR,13bR)-3a-((S)-2-(5-(4-fluorophenyl)-1H-imidazol-2-yl)pyrrolidine-1-carbonyl)-5a,5b,8,8,11a-pentamethyl-1-(1-methylcyclopropyl)icosahydro-1H-cyclopenta[a]chrysen-9-yl)oxy)carbonyl)-2,2-dimethylcyclobutane-1-carboxylic acid] here?
**A.** 448 µg·h/mL

**Q.** What about the AUC(0-t) [1, 2] of the same compound?
**A.** 254 µg·h/mL

**Q.** What about the Cmax [1, 2] of the same compound?
**A.** 9300 ng/mL

**Q.** What about the half-life [1, 2] of the same compound?
**A.** 37.3 h

**Q.** What about the IC50 (HIV-1 strain 92HT599) of the same compound?
**A.** < 0.3 nM

**Q.** Which inhibition at 0.1 µM (HIV-1 strain 92HT599) does the source give for `C=C(C)[C@@H]1CC[C@]2(C(=O)N3CCC[C@@H]3c3ncc(-c4ccccc4)[nH]3)CC[C@]3(C)[C@H](CC[C@@H]4[C@@]5(C)CC[C@H](OC(=O)C6CC(C(=O)O)C6(C)C)C(C)(C)[C@@H]5CC[C@]43C)[C@@H]12` (stereo partly drawn) [Compound 41, 2,2-dimethyl-3-((((1R,3aS,5aR,5bR,7aR,9S,11aR,11bR,13aR,13bR)-5a,5b,8,8,11a-pentamethyl-3a-((R)-2-(5-phenyl-1H-imidazol-2-yl)pyrrolidine-1-carbonyl)-1-(prop-1-en-2-yl)icosahydro-1H-cyclopenta[a]chrysen-9-yl)oxy)carbonyl)cyclobutane-1-carboxylic acid] here?
**A.** 98%

**Q.** And the inhibition at 1 µM (HIV-1 strain 92HT599)?
**A.** 99%

**Q.** What does the source list for `CC(C)(CC(=O)O[C@H]1CC[C@]2(C)[C@H]3CC[C@@H]4[C@H]5[C@H](C6(C)CC6)CC[C@]5(C(=O)N5CCC[C@H]5c5ncc(-c6cccs6)[nH]5)CC[C@@]4(C)[C@]3(C)CC[C@H]2C1(C)C)C(=O)O` [Compound 38]?
**A.** AUC(0-inf) [1, 2]: 119 µg·h/mL; AUC(0-t) [1, 2]: 110 µg·h/mL; Cmax [1, 2]: 7000 ng/mL; half-life [1, 2]: 12.3 h; IC50 (HIV-1 strain 92HT599): 8.4 nM

**Q.** Which AUC(0-t) [1, 3] does the source give for `C=C(C)[C@@H]1CC[C@]2(C(=O)N3CCC[C@@H]3c3nc(-c4ccccc4)no3)CC[C@]3(C)[C@H](CC[C@@H]4[C@@]5(C)CC[C@H](OC(=O)CC(C)(C)C(=O)O)C(C)(C)[C@@H]5CC[C@]43C)[C@@H]12` [Compound 1, 2,2-dimethyl-4-oxo-4-((1R,3aS,5aR,5bR,7aR,9S,11aR,11bR,13aR,13bR)-5a,5b,8,8,11a-pentamethyl-3a-((R)-2-(3-phenyl-1,2,4-oxadiazol-5-yl)pyrrolidine-1-carbonyl)-1-(prop-1-en-2-yl)icosahydro-1H-cyclopenta[a]chrysen-9-yloxy)butanoic acid] here?
**A.** 125 µg·h/mL

**Q.** And the Cmax [1, 3]?
**A.** 12700 ng/mL

**Q.** And the Tmax [1, 3]?
**A.** 6 h

**Q.** What about the IC50 (HIV-1 strain 92HT599) of the same compound?
**A.** 5.02 nM

**Q.** What does the source list for `CC(C)(CC(=O)O[C@H]1CC[C@]2(C)[C@H]3CC[C@@H]4[C@H]5[C@H](C6(C)CC6)CC[C@]5(C(=O)N5CCC[C@H]5c5ncc(-c6cccnc6)[nH]5)CC[C@@]4(C)[C@]3(C)CC[C@H]2C1(C)C)C(=O)O` [Compound 30, 2,2-dimethyl-4-oxo-4-(((1R,3aS,5aR,5bR,7aR,9S,11aR,11bR,13aR,13bR)-5a,5b,8,8,11a-pentamethyl-1-(1-methylcyclopropyl)-3a-((S)-2-(5-(pyridin-3-yl)-1H-imidazol-2-yl)pyrrolidine-1-carbonyl)icosahydro-1H-cyclopenta[a]chrysen-9-yl)oxy)butanoic acid]?
**A.** AUC(0-inf) [1, 2]: 57.8 µg·h/mL; AUC(0-t) [1, 2]: 54.6 µg·h/mL; Cmax [1, 2]: 6400 ng/mL; half-life [1, 2]: 1.7 h; IC50 (HIV-1 strain 92HT599): 3.83 nM

**Q.** With `C=C(C)[C@@H]1CC[C@]2(C(=O)N3CCC[C@H]3c3ncc(-c4ccc(O)cc4)[nH]3)CC[C@]3(C)[C@H](CC[C@@H]4[C@@]5(C)CC[C@H](OC(=O)C6CC(C(=O)O)C6(C)C)C(C)(C)[C@@H]5CC[C@]43C)[C@@H]12` (stereo partly drawn) [Compound 36, 3-((((1R,3aS,5aR,5bR,7aR,9S,11aR,11bR,13aR,13bR)-3a-((S)-2-(5-(4-hydroxyphenyl)-1H-imidazol-2-yl)pyrrolidine-1-carbonyl)-5a,5b,8,8,11a-pentamethyl-1-(prop-1-en-2-yl)icosahydro-1H-cyclopenta[a]chrysen-9-yl)oxy)carbonyl)-2,2-dimethylcyclobutane-1-carboxylic acid] as the compound, how does the AUC(0-inf) [1, 2] read?
**A.** 518 µg·h/mL

**Q.** And the AUC(0-t) [1, 2]?
**A.** 334 µg·h/mL

**Q.** What about the Cmax [1, 2] of the same compound?
**A.** 10900 ng/mL

**Q.** What about the half-life [1, 2] of the same compound?
**A.** 30.3 h

**Q.** With `CC1(C)C(C(=O)O)CC1C(=O)O[C@H]1CC[C@]2(C)[C@H]3CC[C@@H]4[C@H]5[C@H](C6(C)CC6)CC[C@]5(C(=O)N5CCC[C@H]5c5ncc(-c6cccnc6)[nH]5)CC[C@@]4(C)[C@]3(C)CC[C@H]2C1(C)C` (stereo partly drawn) [Compound 32, 2,2-dimethyl-3-((((1R,3aS,5aR,5bR,7aR,9S,11aR,11bR,13aR,13bR)-5a,5b,8,8,11a-pentamethyl-1-(1-methylcyclopropyl)-3a-((S)-2-(5-(pyridin-3-yl)-1H-imidazol-2-yl)pyrrolidine-1-carbonyl)icosahydro-1H-cyclopenta[a]chrysen-9-yl)oxy)carbonyl)cyclobutane-1-carboxylic acid] as the compound, how does the inhibition at 0.1 µM (HIV-1 strain 92HT599) read?
**A.** 100%

**Q.** And the inhibition at 1 µM (HIV-1 strain 92HT599)?
**A.** 100%
